By Ki is commonly meant a dissociation constant, usually derived from enzyme kinetics or from competition with a known ligand. Low values mean tighter binding, high ones weaker binding. The EC50 is the concentration that produces a half-maximal response. A higher EC50 goes with weaker potency. The term Emax denotes the size of the effect at its maximum, as opposed to the concentration needed.

Assay [1] addresses T1, human MOR (Homo sapiens, UniProt P35372).
T1 construct: expressed in transfected cells; cell lines provided by Professor Lawrence Toll
In words: [3H]-diprenorphine competitive displacement binding, MOR. The conditions noted are these: membranes from CHO cells expressing human MOR; mean (SEM), n>=3 in duplicate. The protocol: (§1) Each novel compound was evaluated for binding to and stimulation of KOR, MOR, and DOR. Binding affinity (Ki) was determined by competitive displacement of [^3H]-diprenorphine, a non-selective opioid receptor antagonist with similar affinity for each of the three receptors. Potency (EC50) and efficacy, expressed as percent stimulation compared to a standard agonist at each receptor, were determined by a [^35S]-GTPγS binding assay.
(§2) Membranes prepared from transfected Chinese Hamster Ovary cells stably expressing human KOR, human MOR, or human DOR were used for all assays. Cells were grown to confluence at 37 °C in 5% CO2 in 1:1 DMEM:F12 media with 10% v/v fetal bovine serum and 5% v/v penicillin/streptomycin. Membranes were prepared by washing confluent cells three times with ice cold phosphate-buffered saline (0.9% NaCl, 0.61 mM Na2HPO4, 0.38 mM KH2PO4, pH 7.4). Cells were detached from the plates by incubation in warm harvesting buffer (20 mM HEPES, 150 mM NaCl, 0.68 mM EDTA, pH 7.4) and pelleted by centrifugation at 200× g for 3 min. The cell pellet was suspended in ice-cold 50 mM Tris-HCl buffer, pH 7.4 and homogenized with a Tissue Tearor (Biospec Products, Inc, distributed by Cole-Parmer, Vernon Hills, IL, USA) for 20 s at setting 4. The homogenate was centrifuged at 20,000× g for 20 min at 4 °C, and the pellet was rehomogenized in 50 mM Tris-HCl pH 7.4 with a Tissue Tearor for 10 s at setting 2, followed by recentrifugation. The final pellet was resuspended in 50 mM Tris-HCl pH 7.4 and frozen in aliquots at −80 °C. Protein concentration was determined via Pierce BCA protein assay kit using bovine serum albumin as the standard.
(§3) Binding affinities for all test compounds at KOR, MOR, and DOR were determined by competitive displacement of [^3H]-diprenorphine as previously reported. In a 96-well plate format, cell membranes (5–10 µg of protein) and [^3H]-diprenorphine (0.2 nM) were incubated in Tris-HCl buffer (50 mM, pH 7.4) with various concentrations of test compound at 25 °C for 1 h, allowing the mixture to reach equilibrium. Nonspecific binding was determined using the opioid antagonist naloxone (10 µM), and total binding was determined using vehicle in the absence of competitive ligand. After incubation, membranes were filtered through Whatman GF/C 1.2 micron glass fiber filters and washed with 50 mM Tris-HCl buffer. The radioactivity remaining on the filters was then quantified by liquid scintillation counting after saturation with EcoLume liquid scintillation cocktail in a Microbeta 2450 (Perkin-Elmer, Waltham, MA, USA). Binding affinity (Ki) values were calculated using the Cheng–Prusoff equation via nonlinear regression analysis using GraphPad Prism software from at least three separate binding assays performed in duplicate.

Assay [2] addresses T2, human KOR (Homo sapiens, UniProt P41145).
T2 construct: expressed in transfected cells; cell lines provided by Professor Lawrence Toll
In words: [3H]-diprenorphine competitive displacement binding, KOR. The conditions noted are these: membranes from CHO cells expressing human KOR; mean (SEM), n>=3 in duplicate. As for the experimental part: as §1, §2, §3

Assay [3] addresses T1, human MOR. In words: [35S]-GTPγS binding stimulation, MOR. It is filed as biochemical. The conditions noted are these: mean (SEM), * n = 2; for EC50: CHO-human MOR membranes, dns = does not stimulate, average maximal stimulation <10% at up to 10 µM; for Emax: versus 10 µM standard agonist DAMGO, dns = average maximal stimulation <10% at up to 10 µM. As for the experimental part: as §1, §2
(§4) Agonist stimulation of KOR, MOR, and DOR by all test compounds was determined by [^35S]-guanosine 5′-O-[γ-thio]triphosphate ([^35S]-GTPγS) binding assays as previously reported. In a 96-well plate format, membranes from cells expressing opioid receptors as described above (10 µg of protein), [^35S]-GTPγS (0.1 nM), and guanosine diphosphate (30 µM) were incubated in GTPγS buffer (50 mM Tris-HCl, 100 mM NaCl, 5 mM MgCl2, 1 mM EDTA, pH 7.4) with various concentrations of test compound at 25 °C for 1 h. Basal stimulation was determined by incubation in the absence of any ligand. After incubation, membranes were filtered through Whatman GF/C 1.2 micron glass fiber filters and washed with GTPγS buffer with no EDTA. The radioactivity remaining on the filters was then quantified by liquid scintillation counting after saturation with EcoLume liquid scintillation cocktail in a Perkin-Elmer Microbeta 2450. Data are reported as percent stimulation compared to the effects of 10 µM standard agonists—U69,593 (KOR), DAMGO (MOR), or DPDPE (DOR). Percent stimulation and EC50 values were determined via nonlinear regression analysis using GraphPad Prism software from at least three separate assays performed in duplicate. Efficacy is expressed as percent stimulation relative to standard agonists.

The target of assay [4] is T3, human DOR (Homo sapiens, UniProt P41143).
T3 construct: expressed in transfected cells; cell lines provided by Professor Lawrence Toll
In words: [3H]-diprenorphine competitive displacement binding, DOR. Particulars: membranes from CHO cells expressing human DOR; mean (SEM), n>=3 in duplicate. As for the experimental part: as §1, §2, §3

For assay [5], the target named is T3, human DOR. In words: [35S]-GTPγS binding stimulation, DOR. Particulars: mean (SEM), * n = 2; for % Stimulation DOR: versus 10 µM standard agonist DPDPE, dns = average maximal stimulation <10% at up to 10 µM. It is filed as biochemical. The protocol:
as §1, §2, §4
A general note: Binding of GTPγS marks nucleotide exchange on a G protein.

The target of assay [6] is T2, human KOR. In words: [35S]-GTPγS binding stimulation, KOR. Particulars: mean (SEM); for EC50 / EC50 KOR: CHO-human KOR membranes, * n = 2, dns = does not stimulate, average maximal stimulation <10% at up to 10 µM; for Emax / % Stimulation KOR: versus 10 µM standard agonist U69,593, dns = average maximal stimulation <10% at up to 10 µM. It is filed as biochemical. As for the experimental part:
as §1, §2, §4

[7] abbreviates: CHO-human DOR membranes, dns = does not stimulate, average maximal stimulation <10% at up to 10 µM.

With `Cc1cc(O)cc(C)c1C[C@H](N)C(=O)N1CCc2ccc(Cc3ccncc3)cc2C1` [Compound 8k, (S)-2-amino-3-(4-hydroxy-2,6-dimethylphenyl)-1-(7-(pyridin-4-ylmethyl)-3,4-dihydroisoquinolin-2(1H)-yl)propan-1-one], the Ki turned out to be 42 nM on human MOR [1], 44 nM at human KOR [2] and 2.6 nM at human DOR [4]. Moreover, the EC50 at human MOR [3] stood at 179 nM; on human KOR [6] it was 1180 nM. Moreover, the maximum response (Emax) on human MOR [3] was found to be 28%; on human KOR [6], 44%. On human DOR [5] (setting [7]), the “EC50 DOR” value is on record as “dns”. The “% Stimulation DOR” value at human DOR [5] was “dns”.

With `Cc1cc(O)cc(C)c1C[C@H](N)C(=O)N1CCc2ccc(CN3CCCCC3)cc2C1` [Compound 8l, (S)-2-amino-3-(4-hydroxy-2,6-dimethylphenyl)-1-(7-(piperidin-1-ylmethyl)-3,4-dihydroisoquinolin-2(1H)-yl)propan-1-one], on human MOR [1], the inhibition constant Ki worked out at 4.7 nM. The same molecule returned a Ki on human KOR [2] of 29 nM. On human MOR [3], this molecule gave an EC50 of 845 nM and a maximal effect (Emax) of 34%. Further, the Ki on human DOR [4] was 87 nM. Also, on human DOR [5] (setting [7]), the “EC50 DOR” value is “dns”. The “% Stimulation DOR” value on human DOR [5] is recorded as “dns”. Besides, at human KOR [6], the “EC50 KOR” value is “dns” and the “% Stimulation KOR” value is recorded as “dns”.

For the molecule `Cc1cc(O)cc(C)c1C[C@H](N)C(=O)N1CCc2ccc(CN3CCCC3)cc2C1` [Compound 8m, (S)-2-amino-3-(4-hydroxy-2,6-dimethylphenyl)-1-(7-(pyrrolidin-1-ylmethyl)-3,4-dihydroisoquinolin-2(1H)-yl)propan-1-one], the Ki at human MOR [1] is 17 nM; on human KOR [2], 69 nM; on human DOR [4], 175 nM. On human MOR [3], this molecule came in with an Emax of 40%. Besides, the “EC50 DOR” value at human DOR [5] (setting [7]) was “dns *”. Also, on human DOR [5], the “% Stimulation DOR” value is recorded as “dns *”. The “EC50 KOR” value at human KOR [6] is recorded as “dns”. Also, the “% Stimulation KOR” value at human KOR [6] is “dns”.

The molecule `Cc1cc(O)cc(C)c1C[C@H](N)C(=O)N1CCc2ccc(CN3CCOCC3)cc2C1` [Compound 8n, (S)-2-amino-3-(4-hydroxy-2,6-dimethylphenyl)-1-(7-(morpholinomethyl)-3,4-dihydroisoquinolin-2(1H)-yl)propan-1-one] yielded an inhibitory constant (Ki) on human MOR [1] of 39 nM. For the same molecule, at human KOR [2], the inhibition constant Ki stood at 43 nM. At human MOR [3], this molecule yielded a half-maximal effective concentration (EC50) of 860 nM and an Emax of 38%. Also, the Ki at human DOR [4] came out at 5.6 nM. The “EC50 DOR” value at human DOR [5] (setting [7]) was “dns”. Besides, the “% Stimulation DOR” value on human DOR [5] is recorded as “dns”. On human KOR [6], the “EC50 KOR” value is “dns” and the “% Stimulation KOR” value is “dns”.

For the molecule `Cc1cc(O)cc(C)c1C[C@H](N)C(=O)N1CCc2ccc(Cc3cccc4ccccc34)cc2C1` [Compound 8o, (S)-2-amino-3-(4-hydroxy-2,6-dimethylphenyl)-1-(7-(naphthalen-1-ylmethyl)-3,4-dihydroisoquinolin-2(1H)-yl)propan-1-one], the values for the Ki at human MOR [1], on human KOR [2] and at human DOR [4] were 5.2 nM, 4.7 nM and 3.2 nM, respectively. Moreover, the concentration giving a half-maximal response (EC50) at human MOR [3] was found to be 132 nM; on human KOR [6], 349 nM. Further, the maximum response (Emax) amounted to 59% on human MOR [3] and 83% at human KOR [6]. Moreover, the “EC50 DOR” value at human DOR [5] (setting [7]) was “dns”. Further, the “% Stimulation DOR” value on human DOR [5] is “dns”.

Regarding `Cc1cc(O)cc(C)c1C[C@H](N)C(=O)N1CCc2ccc(Cc3ccc4ccccc4c3)cc2C1` [Compound 8p, (S)-2-amino-3-(4-hydroxy-2,6-dimethylphenyl)-1-(7-(naphthalen-2-ylmethyl)-3,4-dihydroisoquinolin-2(1H)-yl)propan-1-one], the Ki on human MOR [1] stood at 5.8 nM; at human KOR [2], 142 nM; on human DOR [4], 3.5 nM. The EC50 on human MOR [3] was 176 nM. Further, the Emax on human MOR [3] was 51%. Also, the “EC50 DOR” value at human DOR [5] (setting [7]) was “dns”. Besides, the “% Stimulation DOR” value on human DOR [5] is “dns”. Also, the “EC50 KOR” value at human KOR [6] was “dns”. Further, the “% Stimulation KOR” value at human KOR [6] is listed as “dns”.

On to `Cc1cc(O)cc(C)c1C[C@H](N)C(=O)N1CCc2ccc(Cc3cccc4cccnc34)cc2C1` [Compound 8q, (S)-2-amino-3-(4-hydroxy-2,6-dimethylphenyl)-1-(7-(quinolin-8-ylmethyl)-3,4-dihydroisoquinolin-2(1H)-yl)propan-1-one], for which the inhibition constant (Ki) was 1.4 nM on human MOR [1], 19 nM on human KOR [2] and 0.46 nM at human DOR [4]. Besides, the figures for the concentration for a half-maximal effect (EC50) at human MOR [3], at human DOR [5] (setting [7]) and on human KOR [6] were 24 nM, 1.2 nM and 258 nM, respectively. Moreover, the results for the Emax at human MOR [3] and on human KOR [6] were 63% and 25%, respectively. Besides, on human DOR [5], the “% Stimulation DOR” value is listed as 23 (4) %.

For the molecule `Cc1cc(O)cc(C)c1C[C@H](N)C(=O)N1CCc2ccc(Cc3cccc4ccncc34)cc2C1` [Compound 8r, (S)-2-amino-3-(4-hydroxy-2,6-dimethylphenyl)-1-(7-(isoquinolin-8-ylmethyl)-3,4-dihydroisoquinolin-2(1H)-yl)propan-1-one], the Ki at human MOR [1] amounted to 1.8 nM; on human KOR [2], 2.7 nM; on human DOR [4] it was 0.69 nM. Besides, the EC50 at human MOR [3] is 24 nM; at human KOR [6], 65 nM. For the same molecule, the Emax on human MOR [3] came to 36%; at human KOR [6], 42%. The “EC50 DOR” value at human DOR [5] (setting [7]) was “dns *”. Besides, the “% Stimulation DOR” value on human DOR [5] is recorded as “dns *”.

Take `Cc1cc(O)cc(C)c1C[C@H](N)C(=O)N1CCc2ccc(Cc3cccc4cnccc34)cc2C1` [Compound 8s, (S)-2-amino-3-(4-hydroxy-2,6-dimethylphenyl)-1-(7-(isoquinolin-5-ylmethyl)-3,4-dihydroisoquinolin-2(1H)-yl)propan-1-one]: the Ki at human MOR [1] came to 9.7 nM; at human KOR [2], 10 nM; on human DOR [4], 1.2 nM. Besides, the values for the EC50 on human MOR [3] and at human KOR [6] were 43 nM and 609 nM, respectively. Besides, the Emax at human MOR [3] turned out to be 28%; at human KOR [6] it was 24%. The “EC50 DOR” value at human DOR [5] (setting [7]) was “dns”. Besides, the “% Stimulation DOR” value at human DOR [5] is “dns”.

For the origin of these results see PMC6930500, “Structure–Activity Relationships of 7-Substituted Dimethyltyrosine-Tetrahydroisoquinoline Opioid Peptidomimetics” (Molecules, 2019).
